This experiment has as its target T1, USP11 (recombinant USP11 protein) (Homo sapiens, UniProt P51784).
T1 construct: commercial recombinant human protein from Sf9 insect cells; His tag implied by RED-tris-NTA labelling
Nature of the experiment: microscale thermophoresis. The experiment is classed as binding.

T1 sequence (P51784 whole entry): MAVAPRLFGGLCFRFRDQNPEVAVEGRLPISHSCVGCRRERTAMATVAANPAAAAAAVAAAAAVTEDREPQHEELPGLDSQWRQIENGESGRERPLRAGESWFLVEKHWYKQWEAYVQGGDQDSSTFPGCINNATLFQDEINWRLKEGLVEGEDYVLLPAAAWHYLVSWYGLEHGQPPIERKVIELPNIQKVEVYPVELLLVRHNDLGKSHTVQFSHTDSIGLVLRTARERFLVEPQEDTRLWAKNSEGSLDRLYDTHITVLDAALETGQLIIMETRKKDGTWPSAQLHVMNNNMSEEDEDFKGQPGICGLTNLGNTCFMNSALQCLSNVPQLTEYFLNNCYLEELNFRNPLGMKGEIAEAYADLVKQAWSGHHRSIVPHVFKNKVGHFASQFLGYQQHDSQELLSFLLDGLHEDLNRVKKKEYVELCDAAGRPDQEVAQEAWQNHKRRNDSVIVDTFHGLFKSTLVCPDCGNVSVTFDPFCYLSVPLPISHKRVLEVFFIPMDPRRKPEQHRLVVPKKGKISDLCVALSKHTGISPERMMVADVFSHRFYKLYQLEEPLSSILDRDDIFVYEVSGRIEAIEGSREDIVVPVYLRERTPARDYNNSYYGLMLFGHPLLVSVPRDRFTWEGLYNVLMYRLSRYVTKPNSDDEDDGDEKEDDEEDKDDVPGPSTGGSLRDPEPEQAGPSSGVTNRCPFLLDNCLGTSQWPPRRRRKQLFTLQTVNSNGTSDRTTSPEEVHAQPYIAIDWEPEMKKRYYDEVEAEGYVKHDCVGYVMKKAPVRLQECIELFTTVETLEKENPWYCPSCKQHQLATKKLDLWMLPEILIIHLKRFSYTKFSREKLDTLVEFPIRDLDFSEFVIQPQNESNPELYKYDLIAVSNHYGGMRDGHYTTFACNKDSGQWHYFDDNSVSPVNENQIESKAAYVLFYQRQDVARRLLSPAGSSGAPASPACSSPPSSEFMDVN

On to `O=C(O)[C@@H]1CCCN1` [IsoLiPro], for which the Kd (as a rule, the concentration at which binding is half-saturated) came out at 43.4 µM.

The record behind these values is publication PMC11555261, “Targeting USP11 regulation by a novel lithium-organic coordination compound improves neuropathologies and cognitive functions in Alzheimer transgenic mice” (EMBO Molecular Medicine, 2024).
